Legend:
[1] = test system: NFE2L1-dependent gene expression; experiment: Quantitative RT-PCR of NFE2L1-dependent genes in HEK293 cells; format: cell-based, human; settings: 7.5 μM, 16 h; for DNAJA1 mRNA, geometric mean (treatment) / HSPA1A mRNA, geometric mean (treatment) / NQO1 mRNA, geometric mean (treatment) / PSMC4 mRNA, geometric mean (treatment) / PSMD12 mRNA, geometric mean (treatment) / SQSTM1 mRNA, geometric mean (treatment): HEK293, normalized to RPLP0, DMSO control = 1; for DNAJA1 mRNA, geometric mean of ratios / HSPA1A mRNA, geometric mean of ratios / NQO1 mRNA, geometric mean of ratios / PSMC4 mRNA, geometric mean of ratios / PSMD12 mRNA, geometric mean of ratios / SQSTM1 mRNA, geometric mean of ratios: treatment/control, ratio paired t test, HEK293
Method: NFE2L1 enhances the transcription of genes encoding proteasome subunits and molecular chaperones such as heat shock proteins (HSPs). To evaluate whether this effect is elicited by RUN compounds, we performed quantitative real-time PCR (RT-qPCR) analysis in HEK293 cells treated with selected RUN compounds (Fig. 2A).[28,53–55]
Fig. 2 (A) qPCRs of HEK293 cells treated with RUN compounds (7.5 μM) for 16 hours. The extracted RNA was reverse transcribed into cDNA and utilized for RT-qPCR (primers are listed in the SI, Table S1); the mRNA levels of RPLP0 were used for normalization. The experiment was performed in three biological replicates (n = 3). (B) Immunoblot analysis of proteins NFE2L1/TCF11/NRF1, SQSTM1/p62, LC3, NQO1 and HSPA1A/HSP70-1 in HEK293 cells after 16 h treatment with 7.5 μM RUN compounds. The protein levels were quantified by measuring the integrated fluorescence of the corresponding protein bands and normalized to the β-actin load. The full-length (F) and cleaved (C) forms of NFE2L1 were analyzed together. The experiment was performed in four biological replicates (n = 4) except for NFE2L1 (n = 3). (A and B) Results of RUN compounds were compared to the DMSO control using ratio paired t-tests corrected for multiple comparisons with Holm–Šídák's method (α = 0.05). *p < 0.05, **p < 0.01. Detailed results of the analysis are shown in SI Tables S5 and S6. […]
HEK-293 cells were seeded into 12 -well plates and allowed to adhere overnight under standard culture conditions. On the following day, cells were treated with the indicated test compounds or DMSO vehicle control for 16 h. After treatment, cells were lysed directly in the wells, and the resulting lysates were collected for downstream RNA extraction. RNA was extracted using the RNeasy® Plus Micro Kit according to the manufacturer’s instructions. Complementary DNA (cDNA) was synthesized from RNA using either t he TATAA GrandScript cDNA Supermix (TATAA Biocenter) or the QuantiTect® Reverse Transcription Kit (Qiagen), following the respective protocols. Quantitative RT -PCR was performed on a LightCycler® 480 instrument (Roche Life Science) using the TATAA SYBR® Gr andMaster® Mix (TATAA […]
Biocenter). Gene expression levels were normalized to RPLP0, and relative expression was calculated using the ΔΔCt method. Data were expressed as fold change relative to the corresponding DMSO control. Statistical analysis of changes in gene expression was performed w ith a ratio paired t-test corrected for multiple comparisons using Holm-Šídák's method (α = 0.05) in GraphPad Prism (v 10.6.1).
Table S1. Sequences of primer pairs used in the qRT -PCR analysis of gene expression.

[2] = test system: chymotrypsin-like activity of the 26S proteasome; experiment: Proteasome activity assay in MCF7 cell lysates; format: cell-based; settings: for Geometric mean, Treatment (Control = 1): MCF7, Figure S6
Method: Building on previous findings, we investigated how selected RUN compounds influence proteasomal function itself. Specifically, we examined the chymotrypsin-like activity of the 26S proteasome following a 16 hour treatment with 7.5 μM RUN compounds in the HEK293 cell line. […] In addition, two other cell lines, MCF7 and SH-SY5Y, were measured (see the SI, Fig. S6).
Figure S6: RUN compounds enhance chymotrypsin-like activity of the 26S proteasome in […]
Cells were treated with 5 µM RUN compounds for 16 hours, with DMSO (0.5%) as the vehicle control. Proteasome chymotrypsin-like activity was measured in cell lysates at 37 °C. Four independent experiments were conducted. Statistical analysis was performed using ratio paired t-tests corrected for multiple comparisons with the Holm-Šídák's method (α = 0.05). Detailed results of the analysis are shown in Supplementary Table S16. […]
2.7 Proteasome activity assay
The corresponding cell lines (HEK293, MCF7, or SH-SY5Y) were seeded into 6-well plates and allowed to adhere overnight under standard culture conditions. On the following day, HEK293 cells were treated with 7.5 µM RUN compounds, whereas MCF7 and SH-SY5Y cells were treated with 5 µM RUN compounds, for 16 hours each. After treatment, cells were harvested, resuspended in lysis buffer (50 mM HEPES, pH 7.5; 5 mM EDTA; 150 mM NaCl; 2 mM ATP; 1% Triton), and centrifuged at 15,000 rpm for 15 minutes at 4 °C. The resulting lysates (25 µg total protein) were incubated with 200 µM of the fluorogenic substrate Suc-Leu-Leu-Val-Tyr-AMC (Bachem, I1395) in assay buffer (50 mM Tris, pH 8.0; 10 mM MgCl₂; 1 mM ATP; 1 mM DTT) at 37 °C. Free AMC release was detected by measuring fluorescence at 360/460 nm. Results of RUN compounds were compared to the DMSO control using a ratio paired t-test corrected for multiple comparisons with the Holm-Šídák's method (α = 0.05) in GraphPad Prism (v 10.6.1).
2.8 XBP1-endoplasmic reticulum (ER) stress reporter assay […]
Two sets of comparisons: 1) […]
treatment with MG132 inhibitor or RUN compounds with DMSO control, 2) RUN compounds vs MG132, were done by two-way repeated-measures ANOVA with Geisser–Greenhouse correction, followed by Dunnett’s multiple comparisons test with individual variances in […]
HCT116 parental cells (WT) and two independent DDI2 knockout clones (KO 04 and KO 11), in which NFE2L1 activation is impaired, were transiently transfected with plasmids encoding either a non-aggregating EGFP-HttQ23 or an aggregation-prone EGFP-HttQ74 construct using Lipofectamine 2000 (Thermo Fisher Scientific) according to the manufacturer’s

[3] = test system: reactive oxygen species; experiment: DCFH-DA oxidative stress detection; format: cell-based; settings: DCFH-DA assay, Figure S8
Method: 2.10 Oxidative stress detection
Cells were cultured in 96-well plates and washed with prewarmed HBSS buffer. A solution of 2',7'-dichlorofluorescein-diacetate (DCFH-DA) (100 μM) was added to the cells, followed by 30 minutes of incubation. […]
dissolved in HBSS buffer for an additional 2 hours. Control cells received vehicle (DMSO), or […]

Structure (SMILES) | DNAJA1 mRNA, geometric mean (treatment) [1] | HSPA1A mRNA, geometric mean (treatment) [1] | NQO1 mRNA, geometric mean (treatment) [1] | PSMC4 mRNA, geometric mean (treatment) [1] | PSMD12 mRNA, geometric mean (treatment) [1] | SQSTM1 mRNA, geometric mean (treatment) [1] | DNAJA1 mRNA, geometric mean of ratios [1] | HSPA1A mRNA, geometric mean of ratios [1] | NQO1 mRNA, geometric mean of ratios [1] | PSMC4 mRNA, geometric mean of ratios [1] | PSMD12 mRNA, geometric mean of ratios [1] | SQSTM1 mRNA, geometric mean of ratios [1] | Geometric mean, Treatment (Control = 1) [2] | Geometric mean, Treatment (Control = 1) ([3]; 5 μM) | Geometric mean, Treatment (Control = 1) ([3]; 25 μM) | Proteasome chymotrypsin-like activity in MCF-7 cells ([2]; 5 μM, 16 h)
COc1ccc(/C=C2\CC(N)C/C(=C\c3ccc(OC)c(OC)c3)C2=O)cc1OC (stereo not drawn) [RUN-81] | 3.68 | 8.57 | 2.23 | 4.76 | 3.37 | 4.15 | 3.68 | 8.57 | 2.23 | 4.76 | 3.37 | 4.15 | 1.11 | 0.96 | 0.99 | –
COc1ccc(/C=C2\CC(NC(=O)C3CCCC3)C/C(=C\c3ccc(OC)c(OC)c3)C2=O)cc1OC (stereo not drawn) [RUN-89] | 7.60 | 8.85 | 2.73 | 2.21 | 5.14 | 5.22 | 7.60 | 8.85 | 2.73 | 2.21 | 5.14 | 5.22 | 1.38 | 1.09 | 1.13 | greatest increase
COc1ccc(/C=C2\CC(NC(=O)c3ccccn3)C/C(=C\c3ccc(OC)c(OC)c3)C2=O)cc1OC (stereo not drawn) [RUN-94] | 6.57 | – | 2.85 | 1.37 | 4.22 | 6.10 | 6.57 | 8.20 | 2.85 | 1.37 | 4.22 | 6.10 | 1.26 | 0.97 | 1.00 | –

Source: publication PMC12606464, “Investigating NFE2L1 activators for targeted protein aggregate clearance: a follow-up study” (RSC Medicinal Chemistry, 2025)
